The record followed here is patent publication US20050261265A1, “MODULATING CELLULAR SENESCENCE BY AMPHIPHYSIN-1” (priority 2000, published 2005).

{FL} = fluorescein region

The test system of one data set is human fibroblasts. Put plainly: Senescence-associated β-galactosidase activity staining. The data set is classed as cell-based. To be noted: for β-galactosidase activity shown from (days after treatment), entry of cellular senescence: fibroblasts PDL 16, 400 μM. As for the experimental part:
The fibroblasts subcultured in Exmaple I-1, PDL of which are 16, were placed in culture plate and were kept to arrest cell cycle to G1 phase in incubator (37° C., 5% CO2 and humidified) for a week. The cell cycle arrest was confirmed as follows: Following the fixation of the cells with cold ethanol, the cells were stained for 30 min. at room temperature using PI staining solution (containing 50 μg/ml of Rnase A and 50 μg/ml of propinium iodide in PBS). Thereafter, using FACS (fluorescence-activated cell sorter), the cell cycle was confirmed by observing DNA phenotype, i.e., 2n or 4n.
The fibroblasts arrested in G1 phase were treated with 400 μM H2O2 and then incubated for 3 hrs., followed by washing with 10 ml of PBS. Then, the cells were subcultured at a 1:4 ratio and under normal conditions for cell culure (37° C., 5% CO2 and humidified), cell culture was continuously performed. Following 7 days after the treatment, the cells were determined in terms of senescence using senescence-associated […] activity staining as described in Example III.
The fibroblasts subcultured in Exmaple I-1, PDL of which are 16, were placed in culture plate containing DMEM and were cultured in incubator (37° C., 5% CO2 and humidified) for 14 hrs. Thereafter, the fibroblasts were treated with 400 μM Hydroxyurea and then incubated continuously. The medium was renewed once per 3 days with the addition of fresh 400 μM Hydroxyurea. Following 14 days after the treatment, the cells were determined in terms of senescence using senescence-associated […] activity staining as described in Example III.
A senescence-associated […] activity staining (hereinafter referred to as “SA β-gal activity staining) was performed according to the method of Dimri et al. (Dimri G P et al., Proc. Natl. Acad. Sci., 92:9363(1995)): The semiconfluent fibroblasts were washed twice with 10 ml of PBS and fixed with 2% paraformaldehyde in PBS for 5 min. at room temperature. […]

The test system of data set [1] is caveolin-1. Put plainly: Western blotting of young cells treated with demethylating agent. The data set is classed as cell-based, human. To be noted: young fibroblasts PDL 20; 1 μM; FIG. 23b. The procedure:
(§1) The induction of cellular senescence was verified by SA β-gal activity staining as Example III. To investigate the expression of related proteins, the treated cells were harvested in different days and western blotting was performed as previously described. In western blotting, anti-p53 antibody, anti-p16 antibody, anti-caveolin-1 antibody and anti-actin antibody were purchased from Santa Cruz Biotechnology, Inc.

A further data set has as its system p16. The description is as above. The data set is classed as cell-based, human. The conditions noted are these: young fibroblasts PDL 20; 1 μM; FIG. 23b. As for the experimental part:
as §1

In data set [2] the test system is caveolin-1. Nature of the data set: Immunostaining of caveolin-1 in old fibroblasts transfected with oligonucleotide. It is filed as cell-based, human. To be noted: old fibroblasts PDL 64; for expression of caveolin-1 in cell (immunostaining): with a lapse of treatment time, FIG. 19. As for the experimental part:
(§2) Old human fibroblasts (PDL 64) were placed onto 24 well-plate or dish containing DMEM without FBS and incubated in incubator (37° C., 5% CO2) for 12 hr. After incubation, 1-5 μg of 100 μM antisense oligonucleotides synthesized and Plus reagent (Gibco-BRL) were mixed with 500 μl of DMEM and subsequently reacted for 15 min. at room temperature, and the resulting mixture was well mixed with 500 μl of the mixture containing 12 μl of Lipofectamine (Gibco-BRL) and DMEM, followed by standing the mixture for 15 min. at room temperature in order to form liposome complex. The incubated cells were washed twice with DMEM (no serum) and treated with 1 ml of the liposome complex, followed by incubation for 3 hr at 37° C. To the transfected cells, 1-5 ml of DMEM containing 10% FBS was added and the incubation was subsequently carried out for 24 hr, after which the media was changed with DMEM containing 10% FBS. Following incubation for a given period, immunostaining and western blotting were carried out as follows:
The cells treated with antisense oligonucleotide were fixed with 0.5 ml of 4% paraformaldehyde for 20 min at room temperature and then permeabilized with 0.5 ml of 0.5% Triton X-100 in PBS for 10 min, followed by blocking with 2% BSA (in PBS). The cells were sequentially incubated with anti-caveolin-1 antibody (Transduction Laboratory) overnight at 4° C. and then rhodamine-conjugated secondary antibody (Santa Cruz) for 1 hr at room temperature. For the purpose of visualizing nucleus, DAPI (Molecular Probe) was also added. The observation was performed using confocal microscope (Biorad, #MRC1024).

Data set [3] concerns caveolin-1. Put plainly: Western blotting of caveolin-1 in cells treated with oligonucleotides. It is filed as cell-based, human. The conditions noted are these: old fibroblasts PDL 64. The procedure:
Analysis of caveolin expression, in young cells (PDL less than 30), middle cells (PDL 35-45) and old cells (PDL more than 60) of Human fibroblasts or IMR-90 cells, was performed by Western blotting as described in Example V. Monoclonal anti-caveolin-1 antibody, monoclonal anti-caveolin-2 antibody and monoclonal anti-caveolin-3 antibody were purchased from Transduction Laboratories.
as §2, with “follows: […]” for “follows:”
(In general: In western blotting, separated proteins are transferred to a membrane and probed.)

The subject of a further data set is Erk-1/2. Nature of the data set: Western blotting of Erk-1/2 activation upon EGF after oligonucleotide transfection. The conditions noted are these: old cells; 100 ng/ml EGF; FIG. 20. It is filed as cell-based, human. The procedure: Young cells (PDL less than 30), middle cells (PDL 35-45) and old cells (PDL more than 60) of Human fibroblasts or IMR-90 cells, respectively were stimulated with 100 ng/ml EGF (Gibco-BRL, human, recombinant). After stimulation, western blotting was performed as described in Example V. Monoclonal anti-phospho-Erk-1/2 antibody, polyclonal anti-Erk-1/2 antibody and polyclonal anti-EGFR antibody were purchased from Santa Cruz Biotechnology, Inc. As found in FIG. 13a, in both young and middle-aged cells, Erk-1/2 kinases were phosphorylated (activated) within 5 min, and the resulting activation was sustained for 15 min after EGF stimulation. However, the phosphorylation of Erk-1/2 kinase from old cells was not detected until 15 min had lapsed. The expression level of Erk kinase and EGFR was not changed by the increase of population doubling in Western blot (see FIG. 13b), despite the down-regulation of EGF signaling to Erk kinases.
The old and young fibroblasts were treated with antisense oligonucleotide as described in Example XVII. The EGF stimulation and western blotting were carried out as described in Example XI. FIG. 20 represents the results of this Example.

For a further data set, the system named is p-Erk-1/2. Put plainly: Immunostaining of p-Erk-1/2 translocation to nucleus. It is filed as cell-based, human. To be noted: old cells; EGF; FIG. 22. As for the experimental part:
To verify that Erk-1/2 kinase activated in Example XVIII is translocated into nucleus and regulate sequentially the expression of other genes, immunostaining was performed as follows: Young and old fibroblasts were treated with antisense oligonucleotide and EGF as Example XIII. The treated cells were sequentially incubated with anti-p-Erk (phosphorylated-Erk) antibody (New England Biotech) overnight at 4° C. and then FITC-conjugated secondary antibody (Santa Cruz) for 1 hr at room temperature. For the purpose of visualizing nucleus, DAPI (Molecular Probe) was also added. The image of p-Erk-1/2 localization was visualized using confocal microscope (Biorad, #MRC1024), which is found in FIGS. 21 and 22. In FIGS. 21 and 22, arrows indicate translocation of p-Erk-1/2 kinase into nucleus.

Data set [4] has as its system receptor-mediated endocytosis. Nature of the data set: Internalization of rhodamine-conjugated transferrin in artificially induced senescent cells (confocal microscopy). The data set is classed as cell-based, human. To be noted: 25 μg/ml rhodamine-conjugated transferrin, FIG. 4.

For `Nc1ncn([C@H]2C[C@H](O)[C@@H](CO)O2)c(=O)n1` [5-aza-deoxycytidine], in the data set on human fibroblasts (young fibroblasts PDL 20, 1 μM, treated for about 2 weeks, FIG. 23a), the “SA β-gal activity staining (induction of cellular senescence)” value is listed as “senescent cell-like phenomenon”. In addition, the “expression of caveolin-1” value with caveolin-1 [1] is reported as “increased”. The “expression of p16” value in the data set on p16 is “increased”.

As to “5′-tttgcccccaga-3′ (antisense TTTGCCCCCAGA; all phosphorothioate, 5' {FL}, sugars by position and methylation of C not given here) [antisense oligonucleotide]”, in the data set on caveolin-1 [2], the cell morphology entry is “enlarged and spread morphology to smaller and spindle morphology”; the “expression of caveolin-1 in cell (immunostaining)” value was “dramatically decreased”. Moreover, the “caveolin-1 band (western blotting)” value in the data set with caveolin-1 [3] is recorded as “weaker band corresponding to caveolin-1”. Moreover, the “Erk-1/2 activation by EGF” value with Erk-1/2 was “highly increased”. Moreover, the p-Erk-1/2 in nucleus entry in the data set with p-Erk-1/2 is given as “vice versa”.

With “5′-atgtctgggggc-3′ (sense ATGTCTGGGGGC; all phosphorothioate, 5' {FL}, sugars by position and methylation of C not given here) [sense oligonucleotide, sense oligonucleotide for the same region of caveolin-1 mRNA, control]”, in the data set on caveolin-1 [2], the cell morphology result is on record as “did not show such cell-morphology alteration” and the “expression of caveolin-1 in cell (immunostaining)” value was “not changed”. In the data set on Erk-1/2, the “Erk-1/2 activation by EGF” value is reported as “no alteration in Erk-1/2 activation”. Further, the p-Erk-1/2 in nucleus result in the data set on p-Erk-1/2 is listed as “no p-Erk-1/2 in nucleus”.

For `OO` [H2O2], the “β-galactosidase activity shown from (days after treatment), entry of cellular senescence” value in the data set with human fibroblasts was 10 days. In addition, the “function of receptor-mediated endocytosis (internalization of fluorescent transferrin)” value in data set [4] was “reduced function of receptor-mediated endocytosis”.

Take `NC(=O)NO` [hydroxyurea, Hydroxyurea]: the “β-galactosidase activity shown from (days after treatment), entry of cellular senescence” value in the data set on human fibroblasts lay in the range of 14 to 20 days. Besides, in data set [4], the “function of receptor-mediated endocytosis (internalization of fluorescent transferrin)” value is “reduced function of receptor-mediated endocytosis”.
